Article PMC8839615 (Molecules, 2022)
Where a name gives a salt, the structure may show the parent alone.

Columns and labels:
[1] = Tissue distribution study of β-CD in rats; assay type: in vivo, Wistar rats
Method: The plasma and urine samples were kept at indoor temperature and dissolved before analysis. First, 100 µL of sample was added to a 1.5 mL Eppendorf tube together with 10 µL of ISs solution. Then, 300 µL of methanol:acetonitrile (1:1, v/v) was added, vortexed for 3 min, sonicated for 2 min in an ice-water bath, and centrifuged for 8 min at 16,000 rpm to deposit protein. The supernatant was transferred to a 1.5 mL Eppendorf tube, desiccated under airflow at room temperature, re-dissolved in 50 μL methanol, vortexed for 3 min, sonicated for 5 min in an ice-water bath, and centrifuged for 8 min at 16,000 rpm for LC-MS/MS analysis. For tissue and fecal samples, 100 mg of each sample was precisely weighed and added to a 5 mL Eppendorf tube, then mixed with 1 mL normal saline. The tissue cells were destructed by homogenization to mix with normal saline sufficiently, and the homogenization was achieved after centrifugation for 10 min at 4000 rpm. […]
Eighteen male Wistar rats were separated into three groups with six rats in every group based on different times after administration, containing group A (30 min after oral administration), group B (1h after oral administration), and group C (4 h after oral administration). […] The tissue homogenization samples of the rats in each group were treated according to the contents of Section 2.4.1, and then analyzed according to Section 2.2.1.

[2] = Pharmacokinetics study in rats after oral administration (plasma, LC-MS/MS); assay type: in vivo, Wistar rats; details: for CLZ / VZ / half-life / Cmax: mean ± SD, n = 6; for half-life: po
Method: The liquid chromatographic separation process was operated on an XR LC-20AD Prominence^TM UFLC system (Shimadzu, Japan). At a column temperature at 40 °C, substances were analyzed on an Atlantis T3 (2.1 × 150 mm, 3 μm) column. The mobile phase system was water with 0.1% formic acid (A) and methanol with 0.1% formic acid (B). A flow rate of 0.4 mL/min and sample injection volume of 5 μL were used for gradient elution. The gradient elution program was established as follows: 0.01–0.3 min, 5% B; 0.3–0.8 min, 5–50% B; 0.8–1.5 min, 50–70% B; 1.5–2.8 min, 70–85% B; 2.8–5.0 min, 85% B; 5.0–5.01 min, 85–5% B; and 5.01–7.0 min, 5% B.
Mass spectrometry quantitative analysis was conducted on a Q TRAP 4000 MS/MS system to collect data, and then analyst software (version 1.6, AB Sciex, Framingham, MA, USA) was used to handle data. In the MRM mode and taking nitrogen as the circulating gas, electrospray positive ionization (ESI+) was used to analyze four substances. The detailed MS parameters were established as follows: gas 1, 50 psi; gas 2, 40 psi; air curtain gas, 40 psi; ion spray voltage, 5500 V; ion source temperature, 500 °C. Declustering potential (DP), entrance potential (EP), collision energy (CE), and cell exit potential (CXP) were performed as parameters optimized for substances in the MRM mode.
The plasma and urine samples were kept at indoor temperature and dissolved before analysis. First, 100 µL of sample was added to a 1.5 mL Eppendorf tube together with 10 µL of ISs solution. Then, 300 µL of methanol:acetonitrile (1:1, v/v) was added, vortexed for 3 min, sonicated for 2 min in an ice-water bath, and centrifuged for 8 min at 16,000 rpm to deposit protein. The supernatant was transferred to a 1.5 mL Eppendorf tube, desiccated under airflow at room temperature, re-dissolved in 50 μL methanol, vortexed for 3 min, sonicated for 5 min in an ice-water bath, and centrifuged for 8 min at 16,000 rpm for LC-MS/MS analysis. For tissue and fecal samples, 100 mg of each sample was precisely weighed and added to a 5 mL Eppendorf tube, then mixed with 1 mL normal saline. The tissue cells were destructed by homogenization to mix with normal saline sufficiently, and the homogenization was achieved after centrifugation for 10 min at 4000 rpm. The methods to precipitate the protein of tissue and feces homogenization were the same as those of the plasma samples.
Eighteen male Wistar rats were separated into three groups with six rats in every group based on different oral medicines, containing a β-CD-DM group (inclusion compounds of DM with β-CD), DM group (single DM), and β-CD group (single β-CD). Each rat was administered to orally, and the dosage of every group was computed by the equal transformation of human and rat surface area of the body by the clinical dosage; therefore, 6 mg/kg of the β-CD-DM group (DM:β-CD(6 mg/kg:393 mg/kg) mixed evenly), 6 mg/kg of the DM group, and 393 mg/kg of the β-CD group were obtained. Blood samples (250 μL) were obtained from the orbital venous plexus at 0, 0.083, 0.25, 0.5, 0.75, 1, 1.5, 2, 4, 6, 8, 12, 24, 36 h after oral delivery. Then, the blood was centrifuged for 10 min at 4000 rpm to obtain the separation of plasma, and the plasma was stored in at −80 ℃ before application. The plasma samples of the rats in each group were treated according to the contents of Section 2.4.1, and then analyzed according to Section 2.2.1. The plasma concentrations of β-CD, DM, ginsenoside Re (IS 1), and psoralen (IS 2) were calculated by the ratio of peak area between analytes and internal standards. The pharmacokinetic parameters of the three groups of analytes were handled by adopting pharmacokinetic software DAS 2.1 found on non-compartment analysis. Then, the obtained main pharmacokinetic parameters of every group were used for independent sample T-test with SPSS v24.0; p < 0.05 was considered as a difference, and p < 0.01 was considered as a significant difference.

[3] = cited from earlier work
[4] = analyte β-CD in rat plasma, β-CD group (single β-CD), 393 mg/kg oral
[5] = analyte β-CD in rat plasma, β-CD-DM group (inclusion compounds, DM:β-CD 6 mg/kg:393 mg/kg) oral
[6] = analyte DM in rat plasma, DM group (single DM), 6 mg/kg oral
[7] = analyte DM in rat plasma, β-CD-DM group (inclusion compounds, DM:β-CD 6 mg/kg:393 mg/kg) oral

In the case of `OC[C@H]1O[C@@H]2O[C@H]3[C@H](O)[C@@H](O)[C@@H](O[C@H]4[C@H](O)[C@@H](O)[C@@H](O[C@H]5[C@H](O)[C@@H](O)[C@@H](O[C@H]6[C@H](O)[C@@H](O)[C@@H](O[C@H]7[C@H](O)[C@@H](O)[C@@H](O[C@H]8[C@H](O)[C@@H](O)[C@@H](O[C@H]1[C@H](O)[C@H]2O)O[C@@H]8CO)O[C@@H]7CO)O[C@@H]6CO)O[C@@H]5CO)O[C@@H]4CO)O[C@@H]3CO` [β-CD, β-cyclodextrin], the “time at which concentration in entire tissues reached its peak” value ([1]; 393 mg/kg single oral, heart, liver, spleen, lung, kidney, sampled 30 min, 1 h, 4 h) is reported as 1 h, the accumulation in tissues ([1]; 4 h after 393 mg/kg single oral, tissue concentration decreased significantly) is reported as “without noticeable accumulation” and the CLZ [2, 4] is reported as 32.7 ± 10.2 L/h/kg. For the same molecule, the VZ [2, 4] was 400 ± 176 L/kg, the CLZ [2, 5] was 3.03 × 10^1 ± 6.18 L/h/Kg and the VZ [2, 5] was 354 ± 71.6 L/kg. For the same molecule, the half-life ([2]; male, Wistar, rat, plasma, 393 mg/kg, analyte β-CD in rat plasma, β-CD group (single β-CD), 393 mg/kg oral) was 8.33 ± 2.46 h, the half-life ([2]; male, Wistar, rat, plasma, 393 mg/kg, analyte β-CD in rat plasma, β-CD-DM group (inclusion compounds, DM:β-CD 6 mg/kg:393 mg/kg) oral) was 8.21 ± 1.47 h and the concentration at 30 min ([2]; male, Wistar, rat, plasma, 30 min after oral administration, 393 mg/kg, read-out: concentration of β-CD in rat plasma) was ~3500 ng/mL. The concentration at 1 h ([2]; male, Wistar, rat, plasma, 1 h after oral administration, 393 mg/kg, tissue concentration similar, read-out: concentration of β-CD in rat plasma) was ~3000 ng/mL, the “AUC0–t as share of AUC0–∞” value ([2]; β-CD in rat plasma, oral, sampling to 36 h) was “more than 96%” and the “time until almost wholly removed from rat plasma” value ([2]; β-CD, oral administration) was ≤ 36 h.

In the case of `COc1ccc2c(c1)[C@]13CCCC[C@@H]1[C@H](C2)N(C)CC3` [DM, Dextromethorphan hydrobromide, reference compound], the CLZ [2, 6] is reported as 6.55 × 10^1 ± 8.60 L/h/Kg, the Cmax [2, 6] is reported as 2.91 × 10^1 ± 3.17 ng/mL/h and the VZ [2, 6] is reported as 1640 ± 996 L/kg. The CLZ [2, 7] was 44.1 ± 12.5 L/h/kg, the Cmax [2, 7] was 3.27 × 10^1 ± 4.67 ng/mL/h and the VZ [2, 7] was 1900 ± 643 L/kg. For the same molecule, the half-life ([2]; male, Wistar, rat, in vivo, 6 mg/kg, analyte DM in rat plasma, DM group (single DM), 6 mg/kg oral) was 16.8 h, the half-life ([2]; male, Wistar, rat, in vivo, 6 mg/kg, analyte DM in rat plasma, β-CD-DM group (inclusion compounds, DM:β-CD 6 mg/kg:393 mg/kg) oral) was 30.4 h and the water solubility [3] was “poorly water-soluble”.
